The test system of assay [1] is IL-13-stimulated STAT6 phosphorylation in human lung bronchial epithelial BEAS-2B cell line. Nature of the assay: P-STAT6 BEAS-2B + IL-13 cell assay. As to conditions: BEAS2B cells, IL13 stimulation, read-out: Cellular JAK1 PSTAT6 BEAS2B + IL13. Type of assay: cell-based. The procedure, abridged:
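BEAS-2B cells grown 48 h at 37 °C, pre-treated 1 h with compound (10-point 1:2 dilution curve), then stimulated 15 min with human recombinant IL-13 (250 ng/mL stock). Lysate P-STAT6 (Tyr641) read by MSD sandwich ELISA with total-STAT6 capture; IC50 from four-parameter logistic fit of control-normalised data.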

Assay [2] deals with T1, recombinant human JAK1 kinase domain protein (Residues 854-1154) (Homo sapiens, UniProt P23458).
T1 construct: human JAK1 kinase domain protein (Residues 854-1154); purchased Proteros Biostructures GmbH (Martinsried, Germany); host or cells: insect cells
As to the kind of experiment: JAK1 biochemical assay (LabChip mobility shift, Ki). The conditions noted are these: read-out: Biochem JAK1 Ki.

Assay [3] deals with EPO-stimulated P-STAT5 in TF-1 human erythroleukemia cells. As to the kind of experiment: P-STAT5 TF-1 + EPO assay (JAK2 pathway). Type of assay: cell-based. As to conditions: EPO stimulation, read-out: Cellular JAK2 PSTAT5 TF-1 + EPO. As to the method: (§1) TF-1 human erythroleukemia cells (ATCC′; Manassas, VA; Catalog No. CRL-2003™) were grown in Roswell Park Memorial Institute (RPMI) medium supplemented with 10% heat-inactivated fetal bovine serum (FBS), 2 ng/mL granulocyte-macrophage colony-stimulating factor, 1× non-essential amino acids (NEAA), and 1 mM sodium pyruvate. The day before the assay, the cultures were transferred to Opti-MEM™, 1×NEAA, 1 mM sodium pyruvate, and 0.5% charcoal-stripped FBS (starve medium). Inhibitor stock solutions (5 mM in DMSO) were serially diluted 1:2 in DMSO to generate a 10-point concentration titration (at 500× test concentration), which was further diluted by a 50-fold dilution in Assay Medium (RPMI containing 1×NEAA and 1 mM sodium pyruvate) to generate a 10× concentration titration (in 2% DMSO). The cells (300,000 cells/well in 35 μL of Assay Medium) were seeded in 384-well Greiner plates. Diluted inhibitor at 10× concentration (5 μL) was added to the cells and the plates were incubated for 30 minutes at 37° C. in a humidified incubator. Cells were stimulated with the human recombinant cytokine at the respective EC90 concentrations, as previously determined for each individual lot. For the phosphorylated signal transducer and activator of transcription 6 (P-STAT6) TF-1+Interleukin-13 (IL-13) assay, 10 μL of 250 ng/mL IL-13 (R&D Systems; Minneapolis, MN) was added to the cells, which were then incubated for 10 minutes at 37° C. For the P-STAT5 TF-1+Erythropoietin (EPO) assay, 10 μL of 110 IU/mL EPO (Gibco Life Technologies, Catalog No. PHC2054) was added to the cells, which were then incubated for […] at 37° C. For both assays, the incubation was followed by addition to the cells of 5 μL of ice-cold 10× cell lysis buffer (Cell Signaling Technologies; Danvers, MA; Catalog No. 9803S) containing 1 mM phenylmethylsulfonyl fluoride (PMSF). Assay plates were frozen at −80° C. for a minimum of 1 hour. In the IL-13 assay, P-STAT6 was measured by coating goat anti-rabbit (GAR) plates (Meso Scale Discovery [MSD]; Rockville, MD; Catalog No. MSD L21RA-1) with rabbit anti-human total STAT6 antibody (Cell Signaling Technologies; Catalog No. 9362S), incubating the cell lysates in the coated plates overnight at 4° C., and then detecting with mouse anti-P-STAT6 (Tyr641) Clone 16E12 antibody (MilliporeSigma; Burlington, MA; Catalog No. 05-590, custom labeled by MSD with SULFO-tag) using standard MSD plate processing, washing, and detection protocols. In the EPO assay, P-STAT5 was detected using the phospho-STAT5a,b Whole Cell Lysate Kit (MSD; Catalog No. K150IGD-1). The electrochemiluminescence (ECL) signal of wells was read on the MESO SECTOR 5600 (MSD) reader.
(§2) Data analysis was performed by subtracting the negative control (cytokine stimulated and 20 μM control inhibitor-treated cells) mean ECL value from the ECL value of all wells, determining percent of control for test compound well ECL values relative to the positive control (cytokine stimulated and DMSO-treated cells) mean ECL value, and determining the IC50 for test compounds with a four-parameter logistic fit model as shown in Equation 4.

Assay [4] addresses Recombinant human JAK2 kinase domain protein (Residues 812-1132) (Homo sapiens, UniProt O60674). Nature of the assay: JAK2 biochemical assay (LabChip mobility shift, Ki). As to conditions: Biochem JAK2 Ki.
Assay [5] deals with IL-13-stimulated P-STAT6 in TF-1 human erythroleukemia cells. As to the kind of experiment: P-STAT6 TF-1 + IL-13 assay (JAK1 pathway). Type of assay: cell-based. As to conditions: IL13 stimulation, read-out: Cellular JAK1 PSTAT6 TF-1 + IL13. How it is done:
as §1, §2

Read-outs that look alike come from different tables or passages of the source.

The source of these data is patent publication US12528812B2 (Genentech, Inc., priority 2020, dated 2026).

Chain of Recombinant human JAK2 kinase domain protein (Residues 812-1132) (O60674 812-1132): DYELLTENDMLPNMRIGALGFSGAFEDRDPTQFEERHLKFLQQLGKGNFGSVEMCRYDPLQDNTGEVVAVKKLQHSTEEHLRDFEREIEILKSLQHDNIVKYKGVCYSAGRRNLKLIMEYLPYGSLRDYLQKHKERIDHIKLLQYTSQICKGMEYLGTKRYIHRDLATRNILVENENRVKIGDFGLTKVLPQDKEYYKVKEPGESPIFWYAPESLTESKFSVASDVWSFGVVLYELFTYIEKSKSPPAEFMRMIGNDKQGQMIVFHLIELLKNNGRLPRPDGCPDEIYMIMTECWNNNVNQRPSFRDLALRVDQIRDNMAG
T1 sequence (P23458 854-1154): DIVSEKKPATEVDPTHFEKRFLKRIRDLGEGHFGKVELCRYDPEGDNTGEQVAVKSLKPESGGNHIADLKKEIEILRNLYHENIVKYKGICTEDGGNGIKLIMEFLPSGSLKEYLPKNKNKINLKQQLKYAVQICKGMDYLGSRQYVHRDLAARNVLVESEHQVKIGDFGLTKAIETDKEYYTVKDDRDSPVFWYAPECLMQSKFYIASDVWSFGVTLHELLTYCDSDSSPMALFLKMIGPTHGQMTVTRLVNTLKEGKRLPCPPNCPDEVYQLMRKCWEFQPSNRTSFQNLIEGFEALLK

Take `CC(O)Cn1cc(Oc2ccc(OC(F)F)c(-c3nn(C)cc3NC(=O)c3cnn4cccnc34)c2)cn1` (racemic) [Example 121, N-[3-[2-(difluoromethoxy)-5-[1-[rac-(2S)-2-hydroxypropyl]pyrazol-4-yl]oxy-phenyl]-1-methyl-pyrazol-4-yl]pyrazolo[1,5-a]pyrimidine-3-carboxamide]: the IC50 in assay [1] (Homo sapiens, BEAS-2B) came to 18 nM; in assay [3] (Homo sapiens, TF-1, TF-1 cells), 4.9 nM; in assay [5] (Homo sapiens, TF-1, TF-1 cells), 4 nM. Further, the figures for the Ki in assay [2] and in assay [4] were 0.28 nM and 0.18 nM, respectively.

Take `CC(C)N1CC(O)(Cn2cc(Oc3ccc(OC(F)F)c(-c4nn(C)cc4NC(=O)c4cnn5cccnc45)c3)cn2)C1` [Example 201, N-[3-[2-(difluoromethoxy)-5-[1-[(3-hydroxy-1-isopropyl-azetidin-3-yl)methyl]pyrazol-4-yl]oxy-phenyl]-1-methyl-pyrazol-4-yl]pyrazolo[1,5-a]pyrimidine-3-carboxamide]: the IC50 in assay [1] (Homo sapiens, BEAS-2B) worked out at 34 nM; in assay [3] (Homo sapiens, TF-1, TF-1 cells), 21 nM; in assay [5] (Homo sapiens, TF-1, TF-1 cells) it was 14 nM. Further, the inhibitory constant (Ki) (as a rule, a measure of affinity in units of concentration, obtained from inhibition or displacement) in assay [2] worked out at 0.46 nM; in assay [4], 0.34 nM.

Turning to `Cc1ccc(Oc2ccc(OC(F)F)c(-c3nn(C)cc3NC(=O)c3cnn4cccnc34)c2)cc1C(=O)N(C)C` [Example 49, N-[3-[2-(difluoromethoxy)-5-[3-(dimethylcarbamoyl)-4-methyl-phenoxy]phenyl]-1-methyl-pyrazol-4-yl]pyrazolo[1,5-a]pyrimidine-3-carboxamide], the IC50 in assay [1] (Homo sapiens, BEAS-2B) came out at 20 nM; in assay [3] (Homo sapiens, TF-1, TF-1 cells) it was 8.6 nM; in assay [5] (Homo sapiens, TF-1, TF-1 cells), 5.4 nM. The Ki in assay [2] was found to be 0.44 nM; in assay [4] it was 0.28 nM.

With `Cn1cc(NC(=O)c2cnn3cccnc23)c(-c2cc(Oc3cnn(C(F)F)c3)ccc2OC(F)F)n1` [Example 132, N-[3-[2-(difluoromethoxy)-5-[1-(difluoromethyl)pyrazol-4-yl]oxy-phenyl]-1-methyl-pyrazol-4-yl]pyrazolo[1,5-a]pyrimidine-3-carboxamide], the IC50 in assay [1] (Homo sapiens, BEAS-2B) turned out to be 14 nM; in assay [3] (Homo sapiens, TF-1, TF-1 cells), 7.6 nM; in assay [5] (Homo sapiens, TF-1, TF-1 cells), 4.6 nM. For the same compound, the inhibition constant Ki in assay [2] is 0.4 nM; in assay [4] it was 0.24 nM.

With `Cn1cc(NC(=O)c2cnn3cccnc23)c(-c2cc(Oc3cccc(C4CNCCO4)c3)ccc2OC(F)F)n1` (stereo not drawn) [Example 82, N-[3-[2-(difluoromethoxy)-5-(3-morpholin-2-ylphenoxy)phenyl]-1-methyl-pyrazol-4-yl]pyrazolo[1,5-a]pyrimidine-3-carboxamide], the IC50 turned out to be 51 nM in assay [1] (Homo sapiens, BEAS-2B); 15 nM in assay [3] (Homo sapiens, TF-1, TF-1 cells); 8.4 nM in assay [5] (Homo sapiens, TF-1, TF-1 cells). For the same compound, the inhibitory constant (Ki) came to 0.58 nM in assay [2] and 0.6 nM in assay [4].

On to `CN1CCC(n2cc(Oc3ccc(OC(F)F)c(-c4nn(C)cc4NC(=O)c4cnn5cccnc45)c3)cn2)C1` (racemic) [Example 141, N-[3-[2-(difluoromethoxy)-5-[1-[rac-(3R)-1-methylpyrrolidin-3-yl]pyrazol-4-yl]oxy-phenyl]-1-methyl-pyrazol-4-yl]pyrazolo[1,5-a]pyrimidine-3-carboxamide], for which the IC50 in assay [1] stood at 46 nM; in assay [3] (Homo sapiens, TF-1, TF-1 cells) it was 33 nM; in assay [5] (Homo sapiens, TF-1, TF-1 cells), 12 nM. Also, the Ki amounted to 1.6 nM in assay [2] and 1.2 nM in assay [4].

Take `CN1CC(O)C(n2cc(Oc3ccc(OC(F)F)c(-c4nn(C)cc4NC(=O)c4cnn5cccnc45)c3)cn2)C1` (stereo not drawn) [Example 179, N-[3-[2-(difluoromethoxy)-5-[1-(4-hydroxy-l-methyl-pyrrolidin-3-yl)pyrazol-4-yl]oxy-phenyl]-1-methyl-pyrazol-4-yl]pyrazolo[1,5-a]pyrimidine-3-carboxamide]: the IC50 turned out to be 50 nM in assay [1], 72 nM in assay [3] (TF-1 cells) and 92 nM in assay [5] (TF-1 cells). Besides, the inhibition constant (Ki) in assay [2] is 0.82 nM; in assay [4], 0.4 nM.

In the case of `Cn1cc(NC(=O)c2cnn3cccnc23)c(-c2cc(Oc3cnn(C4COC4)c3)ccc2OC(F)F)n1` [Example 114, N-[3-[2-(difluoromethoxy)-5-[1-(oxetan-3-yl)pyrazol-4-yl]oxy-phenyl]-1-methyl-pyrazol-4-yl]pyrazolo[1,5-a]pyrimidine-3-carboxamide], the IC50 is 29 nM in assay [1] (Homo sapiens, BEAS-2B); 29 nM in assay [3] (Homo sapiens, TF-1, TF-1 cells); 6 nM in assay [5] (Homo sapiens, TF-1, TF-1 cells). Moreover, the inhibitory constant (Ki) in assay [2] was determined as 0.84 nM; in assay [4], 0.49 nM.

As to `CN1CC[C@H](O)[C@@H](n2cc(Oc3ccc(OC(F)F)c(-c4nn(C)cc4NC(=O)c4cnn5cccnc45)c3)cn2)C1` (stereo in doubt) [Example 184, N-[3-[2-(difluoromethoxy)-5-[1-[rac-(3S,4S)-4-hydroxy-l-methyl-3-piperidyl]pyrazol-4-yl]oxy-phenyl]-1-methyl-pyrazol-4-yl]pyrazolo[1,5-a]pyrimidine-3-carboxamide], the IC50 in assay [1] (Homo sapiens, BEAS-2B) turned out to be 47 nM; in assay [3] (Homo sapiens, TF-1, TF-1 cells), 38 nM; in assay [5] (Homo sapiens, TF-1, TF-1 cells), 12 nM. Besides, the figures for the inhibition constant Ki in assay [2] and in assay [4] were 0.32 nM and 0.21 nM, respectively.

With `CN1CCC(n2cc(Oc3ccc(OC(F)F)c(-c4nn(C)cc4NC(=O)c4cnn5cccnc45)c3)cn2)C(O)C1` (stereo not drawn) [Example 187, N-[3-[2-(difluoromethoxy)-5-[1-(3-hydroxy-1-methyl-4-piperidyl)pyrazol-4-yl]oxy-phenyl]-1-methyl-pyrazol-4-yl]pyrazolo[1,5-a]pyrimidine-3-carboxamide], the IC50 in assay [1] amounted to 44 nM; in assay [3] (TF-1 cells) it was 38 nM; in assay [5] (TF-1 cells), 34 nM. The values for the Ki in assay [2] and in assay [4] were 0.35 nM and 0.24 nM, respectively.

As to `CN1CC(O)(c2cccc(Oc3ccc(OC(F)F)c(-c4nn(C)cc4NC(=O)c4cnn5cccnc45)c3)c2)C1` [Example 79, N-[3-[2-(difluoromethoxy)-5-[3-(3-hydroxy-l-methyl-azetidin-3-yl)phenoxy]phenyl]-1-methyl-pyrazol-4-yl]pyrazolo[1,5-a]pyrimidine-3-carboxamide], the IC50 is 8 nM in assay [1] (Homo sapiens, BEAS-2B); 4.8 nM in assay [3] (Homo sapiens, TF-1, TF-1 cells); 8.2 nM in assay [5] (Homo sapiens, TF-1, TF-1 cells). Moreover, the results for the Ki in assay [2] and in assay [4] were 0.24 nM and 0.25 nM, respectively.

Consider `Cn1cc(NC(=O)c2cnn3cccnc23)c(-c2cc(Oc3cnn([C@@H]4CNCC[C@H]4O)c3)ccc2OC(F)F)n1` (stereo in doubt) [Example 181, N-[3-[2-(difluoromethoxy)-5-[1-[rac-(3R,4R)-4-hydroxy-3-piperidyl]pyrazol-4-yl]oxy-phenyl]-1-methyl-pyrazol-4-yl]pyrazolo[1,5-a]pyrimidine-3-carboxamide], for which the IC50 in assay [1] (Homo sapiens, BEAS-2B) stood at 60 nM; in assay [3] (Homo sapiens, TF-1, TF-1 cells), 160 nM; in assay [5] (Homo sapiens, TF-1, TF-1 cells), 76 nM. For the same compound, the Ki in assay [2] was found to be 0.29 nM; in assay [4], 0.23 nM.
